Values of other authors in PMC7234998, “Quantification of Colistin in Plasma by Liquid Chromatography-Tandem Mass Spectrometry: Application to a Pharmacokinetic Study” (Scientific Reports, 2020).

Conditions: in vivo, cited from earlier work
Method: However, colistin sulphate has been reported to be well absorbed after an oral administration in infants. […] The standards and quality control samples concentrations were selected based on the therapeutic range of colistin. The expected colistin serum levels according to the antimicrobial reference laboratory assay service are 5–15 mg/L and 2–4 mg/L for the peak and tough concentrations, respectively. […] Choosing the animal species to perform the pharmacokinetic study was based on the similarity of colistin pharmacokinetic profile between animal species and humans. […] The species that has the closest pharmacokinetic profile to humans are rats[43]–[45].

Substance	Vd at steady state (human) [L/kg]	t1/2 (human) [h]	absorption after intramuscular injection	absorption through burns, inflamed skin or mucosal membranes	absorption through the GIT	absorption after oral administration in infants (po)	absorption from the gastrointestinal tract (GIT) (po)	maximum serum concentration [mg/L]	time of maximum serum concentration [h]
colistimethate sodium [CMS]	0.34 ± 0.10	2.07 ± 0.867	rapidly absorbed	not absorbed	poorly absorbed	–	–	–	–
colistin sulphate	–	–	–	–	–	well absorbed	poorly absorbed	0.13	1.5
